Results as given in publication PMC10394516, “The pharmacokinetic profile of brensocatib and its effect on pharmacodynamic biomarkers including NE, PR3, and CatG in various rodent species” (Frontiers in Pharmacology, 2023).

Experiments:
Format in all cases: in vivo
[1] = tested on: NE; test: Bone marrow NE activity after repeated dosing, Sprague Dawley rats; settings: for Reduction of NE activity vs vehicle / Change From Vehicle Control (%) NE: 9 days
Description: (§1) Briefly, animals were weighed and randomized into different treatment groups. In total, three different dosing levels of brensocatib were tested in each species and strain; each QD dosing level was equivalent to 1.5-times the matching daily BID dose. For BID dosing, the second daily dose was administered 8-h post the morning dose. C57BL/6 mice were dosed either BID or QD for 7 consecutive days at 0/0, 0.5/0.75, 2/3, and 20/30 mg/kg/day (BID/QD). BALB/c mice were dosed for 7 consecutive days at 0/0, 0.2/0.3, 2/3, and 20/30 mg/kg/day (BID/QD). SD rats were dosed for 9 consecutive days at 0/0, 0.2/0.3, 2/3, and 20/30 mg/kg/day (BID/QD). Wistar rats were dosed for 7 consecutive days at 0/0, 0.2/0.3, 2/3, and 20/30 mg/kg/day (BID/QD).
(§2) At the completion of the study, animals were sacrificed 16–24 h post their final dose. The hind limb bones (femurs and tibias) were collected at necropsy for bone marrow analysis of NSP activities by kinetic enzymatic assays ([Basso et al., 2022]). See section Quantification of Bone Marrow NSP Activities for details.
(§3) For the mice, each animal had the femurs and tibias of both hind limbs harvested. For the rat, the femur and tibia from a single hind limb per animal was harvested. Bones were kept on wet ice until processing for bone marrow collection. In brief, bone cutters were used to cut the epiphysis (knobby ends) off the long bones to expose the bone marrow filled cavity. Each bone cavity was then flushed with 5 mL/bone (mouse) or 10 mL/bone (rat) of ice-cold RPMI media through a […] and collected in a 50-mL conical tube. Cells were spun down at 2,500 × g at 4°C for 5 min and the supernatant was aspirated. After which, bone marrow cells were lysed with 1X red blood cell (RBC) lysis buffer (Abcam, ab204733) to eliminate contaminating RBCs and washed with PBS to remove any residual RBC lysis buffer. The resulting white blood cells (WBC) were subsequently lysed with 1% (v/v) Triton X-100 in PBS. Lysates were added to 96-well plates and stored at −80°C until NSP analyses.
(§4) Bone marrow lysates prepared as described above were diluted and plated onto 96-well assay plates to quantify NSP activities as described previously ([Basso et al., 2022]). Briefly, peptide substrates for NE (N-Methoxysuccinyl-Ala-Ala-Pro-Val-7-amido-4-methylcoumarin; Sigma; St. Louis, MO; Excitation/Emission at 350/450 nm), PR3 ((7-Methoxycoumarin-4-yl)acetyl-lysyl-(picolinoyl)-Tyr-Asp-Ala-Lys-Gly-Asp-N-3-(2-4-dinitrophenyl)-2-3-diaminopropyonyl-NH2); GenScript; Piscataway, NJ; Excitation/Emission at 340/430 nm), and CatG (N-Succinyl-Ala-Ala-Pro-Phe p nitroanilide; Sigma; Absorbance at 405 nm) were added at a final assay concentration of 100 μM, 40 μM, and 200 μM, respectively, and either fluorescence or absorbance was quantified using a Synergy microplate reader (BioTek; Winooski, VT). The specific NSP activity in each sample was calculated as the total activity minus the activity in the presence of a specific NSP inhibitor (if used), including elastase inhibitor (Abcam) for NE, sivelestat (Abcam) for PR3, and cathepsin G inhibitor I (Cayman Chemical; Ann Arbor, MI) for CatG. NSP concentrations were interpolated based on their activities relative to the standard curves created using active human NE protein (Sigma), active human PR3 protein (Sigma), and active human CatG protein (Sigma), respectively. Due to unavailability of commercial mouse and/or rat NE, PR3, and CatG proteins, the corresponding human proteins were used instead since their catalytic ability is considered to be conserved across species. A portion of each cell lysate sample was retained for protein quantification using a Pierce™ BCA Protein Assay Kit (Thermo Fisher). The NSP activities were normalized for the cell lysate protein concentrations.
(§5) The Pierce™ BCA Protein Assay Kit was used to measure the total protein of the samples after lysis to allow for subsequent normalization. […]

[2] = tested on: CatG; test: Bone marrow CatG activity after repeated dosing, Wistar rats; settings: for Reduction of CatG activity vs vehicle / Change From Vehicle Control (%) CatG: 7 days
Description: as §1, §2, §3, §4, §5

[3] = tested on: NSPs (NE, PR3, CatG); test: PD onset study, bone marrow NSP activities (all three NSPs), C57BL/6 mice; settings: 5 mg/kg BID
Description: A 14-day PD onset study was performed in female C57BL/6 mice dosed BID. Mice were dosed by oral gavage either with vehicle (0 mg/kg) or 5 mg/kg brensocatib (BID; 10 mg/kg/day) for 1, 4, 7, 10, or 14 consecutive days. Plasma was collected from animals during the first 24 h of dosing at 1, 2, 8, 9, 10, and 24 h post the initial dose. Note the 8- and 24-h plasma samples were prior to the afternoon dose and the second day dose (if applicable), respectively. Plasma was used for PK analysis via LC-MS/MS. […]
Bone marrow lysates prepared as described above were diluted and plated onto 96-well assay plates to quantify NSP activities as described previously ([Basso et al., 2022]). Briefly, peptide substrates for NE (N-Methoxysuccinyl-Ala-Ala-Pro-Val-7-amido-4-methylcoumarin; Sigma; St. Louis, MO; Excitation/Emission at 350/450 nm), PR3 ((7-Methoxycoumarin-4-yl)acetyl-lysyl-(picolinoyl)-Tyr-Asp-Ala-Lys-Gly-Asp-N-3-(2-4-dinitrophenyl)-2-3-diaminopropyonyl-NH2); GenScript; Piscataway, NJ; Excitation/Emission at 340/430 nm), and CatG (N-Succinyl-Ala-Ala-Pro-Phe p nitroanilide; Sigma; Absorbance at 405 nm) were added at a final assay concentration of 100 μM, 40 μM, and 200 μM, respectively, and either fluorescence or absorbance was quantified using a Synergy microplate reader (BioTek; Winooski, VT). […]

[4] = BID highest dose (20 mg/kg/day)
[5] = highest dose level 20/30 (BID/QD) mg/kg/day

**Q.** For Cn1c(=O)oc2ccc(-c3ccc(C[C@@H](C#N)NC(=O)[C@@H]4CNCCCO4)cc3)cc21 [brensocatib], which “Reduction of NE activity vs vehicle” value [1, 4] is on record?
**A.** 38%

**Q.** And the “Reduction of NE activity vs vehicle” value ([1]; QD highest dose (30 mg/kg/day))?
**A.** 36%

**Q.** What about the “Combined BID and QD percent reduction, NE” value [1, 5] of the same compound?
**A.** 37%

**Q.** What about the “Change From Vehicle Control (%) NE” value ([1]; oral BID 0.2 mg/kg/day) of the same compound?
**A.** +6% (p = 0.6846)

**Q.** And the “Change From Vehicle Control (%) NE” value ([1]; oral BID 2 mg/kg/day)?
**A.** −18% (p = 0.0243)

**Q.** And the “Change From Vehicle Control (%) NE” value ([1]; oral BID 20 mg/kg/day)?
**A.** −38% (p < 0.0001)

**Q.** And the “Change From Vehicle Control (%) NE” value ([1]; oral QD 0.3 mg/kg/day)?
**A.** −2% (p = 0.9973)

**Q.** What about the “Change From Vehicle Control (%) NE” value ([1]; oral QD 3 mg/kg/day) of the same compound?
**A.** −19% (p = 0.2196)

**Q.** What about the “Change From Vehicle Control (%) NE” value ([1]; oral QD 30 mg/kg/day) of the same compound?
**A.** −36% (p = 0.0078)

**Q.** What about the “Reduction of CatG activity vs vehicle” value [2, 4] of the same compound?
**A.** 32%

**Q.** What about the “Reduction of CatG activity vs vehicle” value ([2]; QD highest dose (30 mg/kg/day)) of the same compound?
**A.** 41%

**Q.** What about the “Combined BID and QD percent reduction, CatG” value [2, 5] of the same compound?
**A.** 37%

**Q.** What about the “Change From Vehicle Control (%) CatG” value ([2]; oral BID 0.2 mg/kg/day) of the same compound?
**A.** −14% (p = 0.7146)

**Q.** What about the “Change From Vehicle Control (%) CatG” value ([2]; oral BID 2 mg/kg/day) of the same compound?
**A.** −16% (p = 0.6392)

**Q.** And the “Change From Vehicle Control (%) CatG” value ([2]; oral BID 20 mg/kg/day)?
**A.** −32% (p = 0.1106)

**Q.** And the “Change From Vehicle Control (%) CatG” value ([2]; oral QD 0.3 mg/kg/day)?
**A.** +5% (p = 0.9843)

**Q.** What about the “Change From Vehicle Control (%) CatG” value ([2]; oral QD 3 mg/kg/day) of the same compound?
**A.** −35% (p = 0.0605)

**Q.** What about the “Change From Vehicle Control (%) CatG” value ([2]; oral QD 30 mg/kg/day) of the same compound?
**A.** −41% (p = 0.0202)

**Q.** And the “Time to maximum reduction in NSP activities (observed)” value ([3]; visually observed)?
**A.** ~7 days

**Q.** And the “Time to maximum reduction in NSP activities (with modeling)” value ([3]; with modeling)?
**A.** ~8 days
